From ChEMBL document CHEMBL1136839, “3,4-Disubstituted isothiazoles: novel potent inhibitors of VEGF receptors 1 and 2” (Bioorg Med Chem Lett, 2009)

Legend:
[1] = Inhibition of Bcr-Abl T315 mutant at 10 uM by HTRF assay
[2] = Inhibition of PKA at 10 uM by HTRF assay
[3] = biological target: T1, Vascular endothelial growth factor receptor 2 (Homo sapiens, UniProt P35968); experiment: Inhibition of VEGFR2 assessed as blockade of pGAT-biotin phosphorylation in presence of 2 uM ATP by HTRF assay
[4] = biological target: Insulin receptor (Homo sapiens) (UniProt P06213); experiment: Inhibition of InR at 10 uM by HTRF assay
Insulin receptor (Homo sapiens), sequence (P06213 28-758 limits assumed): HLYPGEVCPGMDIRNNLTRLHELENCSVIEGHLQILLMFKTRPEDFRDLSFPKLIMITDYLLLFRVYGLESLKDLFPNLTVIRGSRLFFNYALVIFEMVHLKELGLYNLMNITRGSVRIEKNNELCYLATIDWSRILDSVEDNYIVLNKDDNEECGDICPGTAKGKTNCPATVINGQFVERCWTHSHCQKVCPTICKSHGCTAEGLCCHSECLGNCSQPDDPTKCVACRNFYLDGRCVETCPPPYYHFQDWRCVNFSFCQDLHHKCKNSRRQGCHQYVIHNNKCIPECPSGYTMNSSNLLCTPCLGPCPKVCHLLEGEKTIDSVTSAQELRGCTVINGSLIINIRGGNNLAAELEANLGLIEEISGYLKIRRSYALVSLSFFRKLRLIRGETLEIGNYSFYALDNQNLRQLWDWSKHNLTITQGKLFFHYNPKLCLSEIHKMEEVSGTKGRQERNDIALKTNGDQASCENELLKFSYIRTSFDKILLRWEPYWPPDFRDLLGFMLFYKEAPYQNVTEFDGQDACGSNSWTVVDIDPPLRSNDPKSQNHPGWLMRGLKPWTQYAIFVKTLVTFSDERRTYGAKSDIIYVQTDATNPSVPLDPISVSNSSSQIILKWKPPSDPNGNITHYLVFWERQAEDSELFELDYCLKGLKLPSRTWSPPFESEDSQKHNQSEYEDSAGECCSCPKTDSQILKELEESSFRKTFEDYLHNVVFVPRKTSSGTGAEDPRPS
Insulin receptor (Homo sapiens), sequence (P06213 763-1382 limits assumed): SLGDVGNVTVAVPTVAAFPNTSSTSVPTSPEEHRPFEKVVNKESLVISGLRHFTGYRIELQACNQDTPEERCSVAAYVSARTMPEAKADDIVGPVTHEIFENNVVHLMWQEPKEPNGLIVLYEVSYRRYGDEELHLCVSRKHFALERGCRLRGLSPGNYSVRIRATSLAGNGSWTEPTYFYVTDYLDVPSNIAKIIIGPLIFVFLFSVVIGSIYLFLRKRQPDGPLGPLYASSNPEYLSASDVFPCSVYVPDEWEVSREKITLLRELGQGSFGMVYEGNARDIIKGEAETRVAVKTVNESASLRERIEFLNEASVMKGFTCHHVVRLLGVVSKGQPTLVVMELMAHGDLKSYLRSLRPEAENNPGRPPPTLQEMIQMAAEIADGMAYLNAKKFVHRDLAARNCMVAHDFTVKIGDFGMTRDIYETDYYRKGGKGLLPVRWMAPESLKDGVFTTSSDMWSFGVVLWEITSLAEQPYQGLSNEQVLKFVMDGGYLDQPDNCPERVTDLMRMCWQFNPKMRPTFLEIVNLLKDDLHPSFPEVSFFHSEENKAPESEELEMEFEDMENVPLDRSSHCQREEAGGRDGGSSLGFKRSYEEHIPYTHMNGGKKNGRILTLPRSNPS

[5] = biological target: Hepatocyte growth factor receptor (Homo sapiens) (UniProt P08581); experiment: Inhibition of cMET at 10 uM by HTRF assay
Hepatocyte growth factor receptor (Homo sapiens), sequence (P08581 whole entry): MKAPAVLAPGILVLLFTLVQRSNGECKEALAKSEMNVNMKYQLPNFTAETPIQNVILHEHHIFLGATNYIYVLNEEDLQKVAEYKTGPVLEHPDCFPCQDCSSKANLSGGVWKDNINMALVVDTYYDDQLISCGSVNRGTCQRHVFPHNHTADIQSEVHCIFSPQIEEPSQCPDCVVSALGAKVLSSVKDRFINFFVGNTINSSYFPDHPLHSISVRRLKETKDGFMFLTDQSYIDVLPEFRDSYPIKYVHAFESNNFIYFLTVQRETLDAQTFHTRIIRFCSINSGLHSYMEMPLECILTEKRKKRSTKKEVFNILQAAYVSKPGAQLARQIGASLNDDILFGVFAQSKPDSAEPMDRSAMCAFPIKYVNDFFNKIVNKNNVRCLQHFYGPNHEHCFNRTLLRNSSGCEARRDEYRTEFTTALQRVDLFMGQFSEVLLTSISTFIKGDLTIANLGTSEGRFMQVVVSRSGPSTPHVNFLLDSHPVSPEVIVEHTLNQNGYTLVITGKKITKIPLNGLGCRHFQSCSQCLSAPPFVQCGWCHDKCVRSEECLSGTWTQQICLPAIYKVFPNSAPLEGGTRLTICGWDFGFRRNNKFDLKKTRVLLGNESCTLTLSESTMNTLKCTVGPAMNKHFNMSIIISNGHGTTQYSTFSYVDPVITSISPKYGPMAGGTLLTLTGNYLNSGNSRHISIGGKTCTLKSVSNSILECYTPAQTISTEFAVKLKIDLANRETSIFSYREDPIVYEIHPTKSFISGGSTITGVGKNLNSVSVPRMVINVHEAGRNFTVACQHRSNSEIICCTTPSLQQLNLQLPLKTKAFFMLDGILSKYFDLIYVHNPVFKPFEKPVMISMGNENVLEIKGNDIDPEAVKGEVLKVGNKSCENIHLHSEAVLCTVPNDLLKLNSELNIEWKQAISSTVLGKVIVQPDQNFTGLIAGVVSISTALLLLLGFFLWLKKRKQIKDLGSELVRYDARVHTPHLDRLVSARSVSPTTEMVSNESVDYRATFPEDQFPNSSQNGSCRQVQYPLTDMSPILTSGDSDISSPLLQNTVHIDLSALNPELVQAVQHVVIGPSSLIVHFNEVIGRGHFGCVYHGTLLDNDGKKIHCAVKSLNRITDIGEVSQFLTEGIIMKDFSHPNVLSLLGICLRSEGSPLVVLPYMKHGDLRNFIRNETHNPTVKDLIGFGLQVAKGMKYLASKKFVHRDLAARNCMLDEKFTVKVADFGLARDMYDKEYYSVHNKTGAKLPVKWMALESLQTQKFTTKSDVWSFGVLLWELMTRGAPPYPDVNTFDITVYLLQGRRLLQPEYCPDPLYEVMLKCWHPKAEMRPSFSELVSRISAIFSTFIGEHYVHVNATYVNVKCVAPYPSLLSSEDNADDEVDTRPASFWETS

[6] = biological target: Serine/threonine-protein kinase PLK1 (Homo sapiens) (UniProt P53350); experiment: Inhibition of Plk1 at 10 uM by HTRF assay
[7] = biological target: T1, Vascular endothelial growth factor receptor 2; experiment: Inhibition of VEGFR2 expressed in HEK293 cells assessed as inhibition of receptor phosphorylation by ELISA; type: cell-based
[8] = biological target: Aurora kinase B (Homo sapiens) (UniProt Q96GD4); experiment: Inhibition of Aurora B at 10 uM by HTRF assay
[9] = biological target: Vascular endothelial growth factor receptor 1 (Homo sapiens, UniProt P17948); experiment: Inhibition of VEGFR1 assessed as blockade of pGAT-biotin phosphorylation in presence of 2 uM ATP by HTRF assay
[10] = biological target: Cyclin-dependent kinase 2 (Homo sapiens) (UniProt P24941); experiment: Inhibition of CDK2 at 10 uM by HTRF assay
[11] = biological target: Macrophage-stimulating protein receptor (Homo sapiens) (UniProt Q04912); experiment: Inhibition of Ron at 10 uM by HTRF assay
[12] = biological target: Insulin-like growth factor 1 receptor (Homo sapiens) (UniProt P08069); experiment: Inhibition of IGF1R at 10 uM by HTRF assay
[13] = biological target: Receptor tyrosine-protein kinase erbB-2 (Homo sapiens) (UniProt P04626); experiment: Inhibition of ErbB2 at 10 uM by HTRF assay
Receptor tyrosine-protein kinase erbB-2 (Homo sapiens), sequence (P04626 whole entry): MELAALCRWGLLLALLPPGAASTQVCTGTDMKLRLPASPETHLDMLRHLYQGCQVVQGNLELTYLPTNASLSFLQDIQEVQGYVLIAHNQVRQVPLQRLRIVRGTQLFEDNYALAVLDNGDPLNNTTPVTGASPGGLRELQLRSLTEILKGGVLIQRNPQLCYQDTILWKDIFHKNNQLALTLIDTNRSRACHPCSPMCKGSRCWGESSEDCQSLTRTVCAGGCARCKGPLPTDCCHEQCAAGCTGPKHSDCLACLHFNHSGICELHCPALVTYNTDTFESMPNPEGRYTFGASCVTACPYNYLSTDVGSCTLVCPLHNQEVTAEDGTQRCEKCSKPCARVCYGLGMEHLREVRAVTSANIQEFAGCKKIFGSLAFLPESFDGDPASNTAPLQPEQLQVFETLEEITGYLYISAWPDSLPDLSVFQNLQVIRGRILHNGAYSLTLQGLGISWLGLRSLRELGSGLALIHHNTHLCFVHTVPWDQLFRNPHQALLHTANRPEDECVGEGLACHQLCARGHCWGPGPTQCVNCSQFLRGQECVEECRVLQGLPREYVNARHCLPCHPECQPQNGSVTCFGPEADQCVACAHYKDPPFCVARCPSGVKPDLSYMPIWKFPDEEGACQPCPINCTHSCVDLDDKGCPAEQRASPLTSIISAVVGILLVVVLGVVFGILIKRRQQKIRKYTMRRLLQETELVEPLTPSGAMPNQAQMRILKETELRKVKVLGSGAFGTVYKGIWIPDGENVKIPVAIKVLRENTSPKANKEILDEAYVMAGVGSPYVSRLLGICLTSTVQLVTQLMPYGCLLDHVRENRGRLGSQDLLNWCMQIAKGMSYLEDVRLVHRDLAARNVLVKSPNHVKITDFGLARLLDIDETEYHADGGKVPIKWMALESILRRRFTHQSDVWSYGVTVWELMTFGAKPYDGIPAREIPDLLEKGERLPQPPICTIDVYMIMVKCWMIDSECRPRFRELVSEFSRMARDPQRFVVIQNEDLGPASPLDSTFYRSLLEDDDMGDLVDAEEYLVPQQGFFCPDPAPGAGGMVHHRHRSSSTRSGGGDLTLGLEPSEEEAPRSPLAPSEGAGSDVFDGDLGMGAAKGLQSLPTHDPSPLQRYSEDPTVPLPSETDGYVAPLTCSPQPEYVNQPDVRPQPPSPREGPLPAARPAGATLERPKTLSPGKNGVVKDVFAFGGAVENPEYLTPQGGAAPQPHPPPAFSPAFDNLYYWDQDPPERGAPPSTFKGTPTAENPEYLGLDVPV

[14] = biological target: Glycogen synthase kinase-3 beta (Homo sapiens) (UniProt P49841); experiment: Inhibition of GSK3-beta at 10 uM by HTRF assay
[15] = biological target: Fibroblast growth factor receptor 1 (Homo sapiens) (UniProt P11362); experiment: Inhibition of FGFR1 at 10 uM by HTRF assay
Fibroblast growth factor receptor 1 (Homo sapiens), sequence (P11362 22-822 limits assumed): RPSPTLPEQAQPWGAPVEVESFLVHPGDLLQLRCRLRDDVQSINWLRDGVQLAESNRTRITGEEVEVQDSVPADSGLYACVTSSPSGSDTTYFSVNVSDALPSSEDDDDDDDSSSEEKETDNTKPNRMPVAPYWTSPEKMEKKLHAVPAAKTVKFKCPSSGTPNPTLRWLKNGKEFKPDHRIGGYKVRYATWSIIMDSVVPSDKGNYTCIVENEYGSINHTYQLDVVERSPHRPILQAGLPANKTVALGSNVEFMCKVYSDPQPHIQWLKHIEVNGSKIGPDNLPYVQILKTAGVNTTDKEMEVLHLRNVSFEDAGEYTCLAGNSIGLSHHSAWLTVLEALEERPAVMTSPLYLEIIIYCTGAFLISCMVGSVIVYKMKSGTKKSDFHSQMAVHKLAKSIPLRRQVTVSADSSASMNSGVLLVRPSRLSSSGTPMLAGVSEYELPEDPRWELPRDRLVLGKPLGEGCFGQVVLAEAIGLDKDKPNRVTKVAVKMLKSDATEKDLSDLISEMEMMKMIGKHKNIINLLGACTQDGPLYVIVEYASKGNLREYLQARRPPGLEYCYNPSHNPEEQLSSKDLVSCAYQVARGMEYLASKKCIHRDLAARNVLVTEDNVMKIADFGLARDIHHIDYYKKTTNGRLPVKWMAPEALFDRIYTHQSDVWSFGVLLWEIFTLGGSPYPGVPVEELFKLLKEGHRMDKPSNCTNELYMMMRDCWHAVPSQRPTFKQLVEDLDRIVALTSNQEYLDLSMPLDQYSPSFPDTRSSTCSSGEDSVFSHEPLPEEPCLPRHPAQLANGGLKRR

[16] = biological target: Cyclin-dependent kinase 1 (Homo sapiens) (UniProt P06493); experiment: Inhibition of CDK1 at 10 uM by HTRF assay
Cyclin-dependent kinase 1 (Homo sapiens), sequence (P06493 whole entry, looked up): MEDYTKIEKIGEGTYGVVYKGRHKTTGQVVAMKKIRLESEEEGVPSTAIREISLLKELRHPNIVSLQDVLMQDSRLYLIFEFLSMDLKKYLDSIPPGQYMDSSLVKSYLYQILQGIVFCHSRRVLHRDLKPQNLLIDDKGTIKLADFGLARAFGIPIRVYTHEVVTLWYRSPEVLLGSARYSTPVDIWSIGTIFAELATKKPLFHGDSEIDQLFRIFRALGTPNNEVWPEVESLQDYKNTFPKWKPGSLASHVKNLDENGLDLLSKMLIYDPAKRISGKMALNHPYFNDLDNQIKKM

[17] = biological target: Receptor-type tyrosine-protein kinase FLT3 (Homo sapiens) (UniProt P36888); experiment: Inhibition of Flt3 at 10 uM by HTRF assay
[18] = biological target: Epidermal growth factor receptor (Homo sapiens) (UniProt P00533); experiment: Inhibition of EGFR at 10 uM by HTRF assay
[19] = biological target: Bcr/Abl fusion protein (Homo sapiens) (UniProt P00519+P11274); experiment: Inhibition of bcr-Abl at 10 uM by HTRF assay; type: protein assay
[20] = biological target: Proto-oncogene tyrosine-protein kinase Src (Homo sapiens) (UniProt P12931); experiment: Inhibition of Src at 10 uM by HTRF assay
[21] = biological target: T2, Aurora kinase A (Homo sapiens) (UniProt O14965); experiment: Inhibition of Aurora A at 10 uM by HTRF assay
T2 sequence (whole entry): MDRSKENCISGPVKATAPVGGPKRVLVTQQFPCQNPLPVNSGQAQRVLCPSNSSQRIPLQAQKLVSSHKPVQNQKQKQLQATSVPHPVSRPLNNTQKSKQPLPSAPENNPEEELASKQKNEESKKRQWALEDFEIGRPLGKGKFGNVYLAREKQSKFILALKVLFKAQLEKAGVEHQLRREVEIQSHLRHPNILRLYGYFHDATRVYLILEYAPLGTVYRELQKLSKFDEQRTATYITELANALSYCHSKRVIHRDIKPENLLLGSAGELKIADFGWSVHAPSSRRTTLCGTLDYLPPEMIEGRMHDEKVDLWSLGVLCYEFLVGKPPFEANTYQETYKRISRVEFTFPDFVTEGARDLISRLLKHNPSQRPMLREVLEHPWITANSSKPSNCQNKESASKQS

[22] = Intrinsic permeability across human Caco-2 cells

Row | SMILES | inhibition [1] [%] | inhibition [2] [%] | IC50 [3] [nM] | inhibition [4] [%] | inhibition [5] [%] | inhibition [6] [%] | IC50 [7] [nM] | inhibition [8] [%] | IC50 [9] [nM] | inhibition [10] [%] | inhibition [11] [%] | inhibition [12] [%] | inhibition [13] [%] | inhibition [14] [%] | inhibition [15] [%] | inhibition [16] [%] | inhibition [17] [%] | inhibition [18] [%] | inhibition [19] [%] | inhibition [20] [%] | further results
1 | O=C(Nc1cccc(Br)c1)c1nscc1NCCc1ccc2c(c1)OCO2 | < 30 | < 30 | > 10000 | < 30 | < 30 | < 30 | > 10000 | < 30 | > 10000 | < 30 | < 30 | < 30 | < 30 | < 30 | < 30 | < 30 | < 30 | < 30 | < 30 | < 30 | inhibition [21]: < 30%
2 | O=C(Nc1cccc(C(F)(F)F)c1)c1nscc1NCc1ccccn1 | < 30 | < 30 | > 10000 | < 30 | < 30 | < 30 | > 10000 | < 30 | > 10000 | < 30 | < 30 | < 30 | < 30 | < 30 | < 30 | < 30 | < 30 | < 30 | < 30 | < 30 | inhibition [21]: < 30%
3 | CC(C)(C)c1cccc(NC(=O)c2nscc2NCc2ccncc2)c1 | < 30 | < 30 | – | < 30 | < 30 | – | – | – | – | < 30 | < 30 | < 30 | < 30 | < 30 | < 30 | < 30 | < 30 | < 30 | < 30 | < 30 | Papp [22]: 5.58 ×10⁻⁶ cm/s
4 | O=C(Nc1ccc(Cl)c(C(F)(F)F)c1)c1nscc1NCc1ccncc1 | < 30 | < 30 | 230 | < 30 | < 30 | < 30 | 530 | < 30 | 980 | < 30 | < 30 | < 30 | < 30 | < 30 | < 30 | < 30 | < 30 | < 30 | < 30 | < 30 | inhibition [21]: < 30%
5 | O=C(Nc1cccc(Br)c1)c1nscc1NCc1ccc2ccccc2n1 | < 30 | < 30 | > 10000 | < 30 | < 30 | < 30 | > 10000 | < 30 | > 10000 | < 30 | < 30 | < 30 | < 30 | < 30 | < 30 | < 30 | < 30 | < 30 | < 30 | < 30 | inhibition [21]: < 30%
6 | O=C(NCc1ccc2c(c1)OCO2)c1nscc1NCc1ccncc1 | < 30 | < 30 | 650 | < 30 | < 30 | < 30 | 790 | < 30 | 700 | < 30 | < 30 | < 30 | < 30 | < 30 | < 30 | < 30 | < 30 | < 30 | < 30 | < 30 | inhibition [21]: < 30%
7 | O=C(Nc1ccc(Cl)c(Cl)c1)c1nscc1NCc1ccncc1 | < 30 | < 30 | 670 | < 30 | < 30 | < 30 | 1110 | < 30 | 750 | < 30 | < 30 | < 30 | < 30 | < 30 | < 30 | < 30 | < 30 | < 30 | < 30 | < 30 | inhibition [21]: < 30%
8 | O=C(Nc1cccc(C(F)(F)F)c1)c1nscc1NCCc1ccc2c(c1)OCO2 | < 30 | < 30 | > 10000 | < 30 | < 30 | < 30 | > 10000 | < 30 | > 10000 | < 30 | < 30 | < 30 | < 30 | < 30 | < 30 | < 30 | < 30 | < 30 | < 30 | < 30 | inhibition [21]: < 30%
9 | O=C(Nc1cccc(Br)c1)c1nscc1NCc1ccncc1 | < 30 | < 30 | 27 | < 30 | < 30 | < 30 | 210 | < 30 | 55 | < 30 | < 30 | < 30 | < 30 | < 30 | < 30 | < 30 | < 30 | < 30 | < 30 | < 30 | inhibition [21]: < 30%
10 | O=C(Nc1ccc2ccccc2n1)c1nscc1NCc1ccncc1 | < 30 | < 30 | 440 | < 30 | < 30 | < 30 | 770 | < 30 | 380 | < 30 | < 30 | < 30 | < 30 | < 30 | < 30 | < 30 | < 30 | < 30 | < 30 | < 30 | inhibition [21]: < 30%
11 | O=C(Nc1cccc(Br)c1)c1nscc1NCc1ccnc2ccccc12 | < 30 | < 30 | – | < 30 | < 30 | – | – | – | – | < 30 | < 30 | < 30 | < 30 | < 30 | < 30 | < 30 | < 30 | < 30 | < 30 | < 30 | Papp [22]: 3.58 ×10⁻⁶ cm/s
12 | O=C(Nc1ccc(C(F)(F)F)c(Cl)c1)c1nscc1NCc1ccncc1 | < 30 | < 30 | 890 | < 30 | < 30 | < 30 | 2050 | < 30 | 1800 | < 30 | < 30 | < 30 | < 30 | < 30 | < 30 | < 30 | < 30 | < 30 | < 30 | < 30 | inhibition [21]: < 30%
